Columns and labels:
MC4 = biological target: T1, MC4 (Homo sapiens, UniProt P32245); test: GPCR radioligand binding (RLB) assay, melanocortin MC4, [125I]NDP-αMSH; conditions: 10 micromolar compound; recombinant human receptor membranes (HEK 293)
T1 construct: purchased Perkin Elmer BioSignal; host or cells: HEK 293
Outline: (§1)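 Membranes from HEK 293 cells expressing the recombinant human receptor were equilibrated with [125I]SST-14 (SST5) or [125I]NDP-αMSH (MC4), then compound added for an optimized incubation. Bound ligand separated by filtration on PEI-coated glass fiber and counted by liquid scintillation.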

SST5 = biological target: T2, SST5 (Homo sapiens, UniProt P35346); test: GPCR radioligand binding (RLB) assay, somatostatin SST5, [125I]SST-14; conditions: 10 micromolar compound; recombinant human receptor membranes (HEK 293)
T2 construct: purchased Perkin Elmer BioSignal; host or cells: HEK 293
Outline: as §1

T2 sequence (P35346 whole entry): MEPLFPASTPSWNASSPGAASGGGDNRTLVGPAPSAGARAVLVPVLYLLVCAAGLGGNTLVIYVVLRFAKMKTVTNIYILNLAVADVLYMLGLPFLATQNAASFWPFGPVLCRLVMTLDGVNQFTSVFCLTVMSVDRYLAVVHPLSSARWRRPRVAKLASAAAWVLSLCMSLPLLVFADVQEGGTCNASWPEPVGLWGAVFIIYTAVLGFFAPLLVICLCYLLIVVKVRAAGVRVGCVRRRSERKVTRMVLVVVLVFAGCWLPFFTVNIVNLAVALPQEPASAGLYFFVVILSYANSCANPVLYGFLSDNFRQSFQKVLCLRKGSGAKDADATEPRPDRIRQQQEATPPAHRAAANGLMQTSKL
T1 sequence (P32245 whole entry): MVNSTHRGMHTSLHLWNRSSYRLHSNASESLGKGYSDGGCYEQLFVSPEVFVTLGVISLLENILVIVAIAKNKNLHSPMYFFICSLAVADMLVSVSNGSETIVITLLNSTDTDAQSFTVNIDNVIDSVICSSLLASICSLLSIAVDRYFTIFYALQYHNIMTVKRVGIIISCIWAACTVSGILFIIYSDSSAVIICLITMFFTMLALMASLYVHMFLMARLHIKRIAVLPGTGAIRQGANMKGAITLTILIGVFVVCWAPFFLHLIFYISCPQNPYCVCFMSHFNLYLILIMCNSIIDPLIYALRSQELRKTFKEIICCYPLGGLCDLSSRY

CSC1OC(COCc2ccc3ccccc3c2)C(O)C(OCc2ccc(Cl)cc2)C1NC(=O)CCN (centres unmarked) [Compound 163]
MC4 inhibition at 10 micromolar (MC4): + (Indicates inhibition greater than . . . 50%) | SST5 inhibition at 10 micromolar (SST5): + (Indicates inhibition greater than . . . 50%)

CSC1OC(COCc2ccc3ccccc3c2)C(O)C(OCc2ccc(Cl)cc2)C1NC(=O)CCNC(=N)N (centres unmarked) [Compound 164]
MC4 inhibition at 10 micromolar (MC4): + (Indicates inhibition greater than . . . 50%) | SST5 inhibition at 10 micromolar (SST5): + (Indicates inhibition greater than . . . 50%)

CSC1OC(COCc2ccc3ccccc3c2)C(O)C(OCc2ccc(Cl)cc2)C1NC(=O)CCCN (centres unmarked) [Compound 165]
MC4 inhibition at 10 micromolar (MC4): + (Indicates inhibition greater than . . . 50%) | SST5 inhibition at 10 micromolar (SST5): + (Indicates inhibition greater than . . . 50%)

CSC1OC(COCc2ccc3ccccc3c2)C(O)C(OCc2ccc(Cl)cc2)C1NC(=O)CCCNC(=N)N (centres unmarked) [Compound 166]
MC4 inhibition at 10 micromolar (MC4): + (Indicates inhibition greater than . . . 50%) | SST5 inhibition at 10 micromolar (SST5): + (Indicates inhibition greater than . . . 50%)

CSC1OC(COCc2ccccc2)C(O)C(OCc2ccc(-c3ccccc3)cc2)C1NC(=O)CN (centres unmarked) [Compound 167]
MC4 inhibition at 10 micromolar (MC4): + (Indicates inhibition greater than . . . 50%) | SST5 inhibition at 10 micromolar (SST5): + (Indicates inhibition greater than . . . 50%)

CSC1OC(COCc2ccccc2)C(O)C(OCc2ccc(-c3ccccc3)cc2)C1NC(=O)CNC(=N)N (centres unmarked) [Compound 168]
MC4 inhibition at 10 micromolar (MC4): + (Indicates inhibition greater than . . . 50%) | SST5 inhibition at 10 micromolar (SST5): + (Indicates inhibition greater than . . . 50%)

CSC1OC(COCc2ccccc2)C(O)C(OCc2ccc(-c3ccccc3)cc2)C1NC(=O)CCN (centres unmarked) [Compound 169]
MC4 inhibition at 10 micromolar (MC4): + (Indicates inhibition greater than . . . 50%) | SST5 inhibition at 10 micromolar (SST5): + (Indicates inhibition greater than . . . 50%)

CSC1OC(COCc2ccccc2)C(O)C(OCc2ccc(-c3ccccc3)cc2)C1NC(=O)CCNC(=N)N (centres unmarked) [Compound 170]
MC4 inhibition at 10 micromolar (MC4): + (Indicates inhibition greater than . . . 50%) | SST5 inhibition at 10 micromolar (SST5): + (Indicates inhibition greater than . . . 50%)

CSC1OC(COCc2ccccc2)C(O)C(OCc2ccc(-c3ccccc3)cc2)C1NC(=O)CCCN (centres unmarked) [Compound 171]
MC4 inhibition at 10 micromolar (MC4): + (Indicates inhibition greater than . . . 50%) | SST5 inhibition at 10 micromolar (SST5): + (Indicates inhibition greater than . . . 50%)

CSC1OC(COCc2ccccc2)C(O)C(OCc2ccc(-c3ccccc3)cc2)C1NC(=O)CCCNC(=N)N (centres unmarked) [Compound 172]
MC4 inhibition at 10 micromolar (MC4): + (Indicates inhibition greater than . . . 50%) | SST5 inhibition at 10 micromolar (SST5): + (Indicates inhibition greater than . . . 50%)

CSC1OC(COCc2ccc(Cl)cc2)C(O)C(OCc2ccc(-c3ccccc3)cc2)C1NC(=O)CN (centres unmarked) [Compound 173]
MC4 inhibition at 10 micromolar (MC4): + (Indicates inhibition greater than . . . 50%) | SST5 inhibition at 10 micromolar (SST5): + (Indicates inhibition greater than . . . 50%)

CSC1OC(COCc2ccc(Cl)cc2)C(O)C(OCc2ccc(-c3ccccc3)cc2)C1NC(=O)CNC(=N)N (centres unmarked) [Compound 174]
MC4 inhibition at 10 micromolar (MC4): + (Indicates inhibition greater than . . . 50%) | SST5 inhibition at 10 micromolar (SST5): + (Indicates inhibition greater than . . . 50%)

CSC1OC(COCc2ccc(Cl)cc2)C(O)C(OCc2ccc(-c3ccccc3)cc2)C1NC(=O)CCN (centres unmarked) [Compound 175]
MC4 inhibition at 10 micromolar (MC4): + (Indicates inhibition greater than . . . 50%) | SST5 inhibition at 10 micromolar (SST5): + (Indicates inhibition greater than . . . 50%)

CSC1OC(COCc2ccc(Cl)cc2)C(O)C(OCc2ccc(-c3ccccc3)cc2)C1NC(=O)CCNC(=N)N (centres unmarked) [Compound 176]
MC4 inhibition at 10 micromolar (MC4): + (Indicates inhibition greater than . . . 50%) | SST5 inhibition at 10 micromolar (SST5): + (Indicates inhibition greater than . . . 50%)

CSC1OC(COCc2ccc(Cl)cc2)C(O)C(OCc2ccc(-c3ccccc3)cc2)C1NC(=O)CCCN (centres unmarked) [Compound 177]
MC4 inhibition at 10 micromolar (MC4): + (Indicates inhibition greater than . . . 50%) | SST5 inhibition at 10 micromolar (SST5): + (Indicates inhibition greater than . . . 50%)

CSC1OC(COCc2ccc(Cl)cc2)C(O)C(OCc2ccc(-c3ccccc3)cc2)C1NC(=O)CCCNC(=N)N (centres unmarked) [Compound 178]
MC4 inhibition at 10 micromolar (MC4): + (Indicates inhibition greater than . . . 50%) | SST5 inhibition at 10 micromolar (SST5): + (Indicates inhibition greater than . . . 50%)

CSC1OC(COCc2ccc(-c3ccccc3)cc2)C(O)C(OCc2ccc(-c3ccccc3)cc2)C1NC(=O)CN (centres unmarked) [Compound 179]
MC4 inhibition at 10 micromolar (MC4): + (Indicates inhibition greater than . . . 50%) | SST5 inhibition at 10 micromolar (SST5): + (Indicates inhibition greater than . . . 50%)

CSC1OC(COCc2ccc(-c3ccccc3)cc2)C(O)C(OCc2ccc(-c3ccccc3)cc2)C1NC(=O)CNC(=N)N (centres unmarked) [Compound 180]
MC4 inhibition at 10 micromolar (MC4): + (Indicates inhibition greater than . . . 50%) | SST5 inhibition at 10 micromolar (SST5): + (Indicates inhibition greater than . . . 50%)

CSC1OC(COCc2ccc(-c3ccccc3)cc2)C(O)C(OCc2ccc(-c3ccccc3)cc2)C1NC(=O)CCN (centres unmarked) [Compound 181]
MC4 inhibition at 10 micromolar (MC4): + (Indicates inhibition greater than . . . 50%) | SST5 inhibition at 10 micromolar (SST5): + (Indicates inhibition greater than . . . 50%)

CSC1OC(COCc2ccc(-c3ccccc3)cc2)C(O)C(OCc2ccc(-c3ccccc3)cc2)C1NC(=O)CCNC(=N)N (centres unmarked) [Compound 182]
MC4 inhibition at 10 micromolar (MC4): + (Indicates inhibition greater than . . . 50%) | SST5 inhibition at 10 micromolar (SST5): + (Indicates inhibition greater than . . . 50%)

CSC1OC(COCc2ccc(-c3ccccc3)cc2)C(O)C(OCc2ccc(-c3ccccc3)cc2)C1NC(=O)CCCN (centres unmarked) [Compound 183]
MC4 inhibition at 10 micromolar (MC4): + (Indicates inhibition greater than . . . 50%) | SST5 inhibition at 10 micromolar (SST5): + (Indicates inhibition greater than . . . 50%)

CSC1OC(COCc2ccc3ccccc3c2)C(O)C(OCc2ccc(-c3ccccc3)cc2)C1NC(=O)CNC(=N)N (centres unmarked) [Compound 186]
MC4 inhibition at 10 micromolar (MC4): + (Indicates inhibition greater than . . . 50%) | SST5 inhibition at 10 micromolar (SST5): + (Indicates inhibition greater than . . . 50%)

CSC1OC(COCc2ccc3ccccc3c2)C(O)C(OCc2ccc(-c3ccccc3)cc2)C1NC(=O)CCN (centres unmarked) [Compound 187]
MC4 inhibition at 10 micromolar (MC4): + (Indicates inhibition greater than . . . 50%) | SST5 inhibition at 10 micromolar (SST5): + (Indicates inhibition greater than . . . 50%)

CSC1OC(COCc2ccc3ccccc3c2)C(O)C(OCc2ccc(-c3ccccc3)cc2)C1NC(=O)CCNC(=N)N (centres unmarked) [Compound 188]
MC4 inhibition at 10 micromolar (MC4): + (Indicates inhibition greater than . . . 50%) | SST5 inhibition at 10 micromolar (SST5): + (Indicates inhibition greater than . . . 50%)

CSC1OC(COCc2ccc3ccccc3c2)C(O)C(OCc2ccc(-c3ccccc3)cc2)C1NC(=O)CCCN (centres unmarked) [Compound 189]
MC4 inhibition at 10 micromolar (MC4): + (Indicates inhibition greater than . . . 50%) | SST5 inhibition at 10 micromolar (SST5): + (Indicates inhibition greater than . . . 50%)

CSC1OC(COCc2ccc3ccccc3c2)C(O)C(OCc2ccc(-c3ccccc3)cc2)C1NC(=O)CCCNC(=N)N (centres unmarked) [Compound 190]
MC4 inhibition at 10 micromolar (MC4): + (Indicates inhibition greater than . . . 50%) | SST5 inhibition at 10 micromolar (SST5): + (Indicates inhibition greater than . . . 50%)

CSC1OC(COCc2ccccc2)C(O)C(OCc2ccc3ccccc3c2)C1NC(=O)CN (centres unmarked) [Compound 191]
MC4 inhibition at 10 micromolar (MC4): + (Indicates inhibition greater than . . . 50%) | SST5 inhibition at 10 micromolar (SST5): + (Indicates inhibition greater than . . . 50%)

CSC1OC(COCc2ccccc2)C(O)C(OCc2ccc3ccccc3c2)C1NC(=O)CNC(=N)N (centres unmarked) [Compound 192]
MC4 inhibition at 10 micromolar (MC4): + (Indicates inhibition greater than . . . 50%) | SST5 inhibition at 10 micromolar (SST5): + (Indicates inhibition greater than . . . 50%)

CSC1OC(COCc2ccccc2)C(O)C(OCc2ccc3ccccc3c2)C1NC(=O)CCNC(=N)N (centres unmarked) [Compound 194]
MC4 inhibition at 10 micromolar (MC4): + (Indicates inhibition greater than . . . 50%) | SST5 inhibition at 10 micromolar (SST5): + (Indicates inhibition greater than . . . 50%)

CSC1OC(COCc2ccccc2)C(O)C(OCc2ccc3ccccc3c2)C1NC(=O)CCCN (centres unmarked) [Compound 195]
MC4 inhibition at 10 micromolar (MC4): + (Indicates inhibition greater than . . . 50%) | SST5 inhibition at 10 micromolar (SST5): + (Indicates inhibition greater than . . . 50%)

CSC1OC(COCc2ccccc2)C(O)C(OCc2ccc3ccccc3c2)C1NC(=O)CCCNC(=N)N (centres unmarked) [Compound 196]
MC4 inhibition at 10 micromolar (MC4): + (Indicates inhibition greater than . . . 50%) | SST5 inhibition at 10 micromolar (SST5): + (Indicates inhibition greater than . . . 50%)

CSC1OC(COCc2ccc(Cl)cc2)C(O)C(OCc2ccc3ccccc3c2)C1NC(=O)CN (centres unmarked) [Compound 197]
MC4 inhibition at 10 micromolar (MC4): + (Indicates inhibition greater than . . . 50%) | SST5 inhibition at 10 micromolar (SST5): + (Indicates inhibition greater than . . . 50%)

CSC1OC(COCc2ccc(Cl)cc2)C(O)C(OCc2ccc3ccccc3c2)C1NC(=O)CNC(=N)N (centres unmarked) [Compound 198]
MC4 inhibition at 10 micromolar (MC4): + (Indicates inhibition greater than . . . 50%) | SST5 inhibition at 10 micromolar (SST5): + (Indicates inhibition greater than . . . 50%)

CSC1OC(COCc2ccc(Cl)cc2)C(O)C(OCc2ccc3ccccc3c2)C1NC(=O)CCN (centres unmarked) [Compound 199]
MC4 inhibition at 10 micromolar (MC4): + (Indicates inhibition greater than . . . 50%) | SST5 inhibition at 10 micromolar (SST5): + (Indicates inhibition greater than . . . 50%)

CSC1OC(COCc2ccc(Cl)cc2)C(O)C(OCc2ccc3ccccc3c2)C1NC(=O)CCNC(=N)N (centres unmarked) [Compound 200]
MC4 inhibition at 10 micromolar (MC4): + (Indicates inhibition greater than . . . 50%) | SST5 inhibition at 10 micromolar (SST5): + (Indicates inhibition greater than . . . 50%)

CSC1OC(COCc2ccc(Cl)cc2)C(O)C(OCc2ccc3ccccc3c2)C1NC(=O)CCCN (centres unmarked) [Compound 201]
MC4 inhibition at 10 micromolar (MC4): + (Indicates inhibition greater than . . . 50%) | SST5 inhibition at 10 micromolar (SST5): + (Indicates inhibition greater than . . . 50%)

CSC1OC(COCc2ccc(Cl)cc2)C(O)C(OCc2ccc3ccccc3c2)C1NC(=O)CCCNC(=N)N (centres unmarked) [Compound 202]
MC4 inhibition at 10 micromolar (MC4): + (Indicates inhibition greater than . . . 50%) | SST5 inhibition at 10 micromolar (SST5): + (Indicates inhibition greater than . . . 50%)
